Drawing on patent publication US20230416227A1, “PLASMA KALLIKREIN INHIBITORS” (Merck Sharp & Dohme LLC, priority 2020, published 2023), this text covers IC50 for 19 compounds.

For one assay, the target named is T1, Human plasma kallikrein (Homo sapiens, UniProt P03952).
T1 construct: yields a heavy chain (371 amino acids) and a light chain (248 amino acids); purchased Enzyme Research Laboratories
In words: Plasma Kallikrein Assay. The class given is biochemical. To be noted: purified Human plasma kallikrein 0.5 nM, substrate Acetyl-K-P-R-AFC, pH 7.4.

The target of the next assay is human factor XIa (Homo sapiens, UniProt P03951). In words: Factor XIa Assay. The class given is biochemical. The note with it: human factor XIa 0.04 nM, substrate GPR-AFC, 30 min pre-incubation at 25° C., pH 7.4; read-out: FXIa IC50.
Sequence of human factor XIa (P03951 388-625 limits assumed): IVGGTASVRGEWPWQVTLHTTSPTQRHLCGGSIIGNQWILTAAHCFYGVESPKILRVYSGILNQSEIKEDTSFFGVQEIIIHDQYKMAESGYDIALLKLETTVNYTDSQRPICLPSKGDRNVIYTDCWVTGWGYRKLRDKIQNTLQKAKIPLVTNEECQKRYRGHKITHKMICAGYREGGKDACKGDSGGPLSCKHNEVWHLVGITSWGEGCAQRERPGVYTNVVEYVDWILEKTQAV
Sequence of human factor XIa (P03951 19-387 partner limits assumed): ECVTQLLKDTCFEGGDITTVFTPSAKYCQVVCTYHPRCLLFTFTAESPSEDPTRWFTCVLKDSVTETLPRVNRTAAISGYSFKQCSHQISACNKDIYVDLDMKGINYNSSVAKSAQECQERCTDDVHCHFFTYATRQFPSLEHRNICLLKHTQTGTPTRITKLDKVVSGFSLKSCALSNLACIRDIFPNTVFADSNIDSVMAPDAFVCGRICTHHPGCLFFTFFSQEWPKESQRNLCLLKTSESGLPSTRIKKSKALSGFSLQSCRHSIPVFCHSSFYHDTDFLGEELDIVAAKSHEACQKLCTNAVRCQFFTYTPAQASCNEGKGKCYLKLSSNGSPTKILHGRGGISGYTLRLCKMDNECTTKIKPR

T1 sequence (P03952 391-638 limits assumed): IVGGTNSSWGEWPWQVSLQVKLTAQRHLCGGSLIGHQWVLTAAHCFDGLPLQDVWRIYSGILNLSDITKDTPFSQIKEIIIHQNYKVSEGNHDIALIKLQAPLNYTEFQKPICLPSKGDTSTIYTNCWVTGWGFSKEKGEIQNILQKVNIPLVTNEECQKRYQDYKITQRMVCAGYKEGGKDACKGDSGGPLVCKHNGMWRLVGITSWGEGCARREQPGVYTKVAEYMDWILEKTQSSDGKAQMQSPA
T1 sequence (P03952 20-390 partner limits assumed): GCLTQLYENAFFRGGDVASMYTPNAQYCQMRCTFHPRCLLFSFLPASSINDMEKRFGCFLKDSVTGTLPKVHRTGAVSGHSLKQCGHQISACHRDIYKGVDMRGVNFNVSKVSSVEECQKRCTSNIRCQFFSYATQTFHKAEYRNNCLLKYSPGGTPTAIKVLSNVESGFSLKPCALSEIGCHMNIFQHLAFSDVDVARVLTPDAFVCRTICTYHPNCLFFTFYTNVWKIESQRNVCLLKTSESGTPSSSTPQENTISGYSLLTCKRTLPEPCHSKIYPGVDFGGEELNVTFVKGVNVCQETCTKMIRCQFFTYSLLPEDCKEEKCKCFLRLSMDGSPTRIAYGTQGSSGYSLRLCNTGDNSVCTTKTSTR

With `O=C(Nc1cnn(Cc2cnc(N3CCC3)nc2)c1)c1nc(-c2c(C(F)F)ccc(Cl)c2F)cnc1C(F)F` [Example 136, N-(1-((2-(Azetidin-1-yl)pyrimidin-5-yl)methyl)-1H-pyrazol-4-yl)-6-(3-chloro-6-(difluoromethyl)-2-fluorophenyl)-3-(difluoromethyl)pyrazine-2-carboxamide], the figures for the IC50 on Human plasma kallikrein and on human factor XIa were 8.6 nM and 838 nM, respectively.

`O=C(O)c1ncc(-c2c(C(F)F)ccc(Cl)c2F)nc1C(=O)Nc1cnn(Cc2cnc(N3CCC3)nc2)c1` [Example 137, 3-((1-((2-(Azetidin-1-yl)pyrimidin-5-yl)methyl)-1H-pyrazol-4-yl)carbamoyl)-5-(3-chloro-6-(difluoromethyl)-2-fluorophenyl)pyrazine-2-carboxylic acid]: the figures for the half-maximal inhibitory concentration (IC50) on Human plasma kallikrein and at human factor XIa were 21.2 nM and 4100 nM, respectively.

Turning to `NC(=O)c1ncc(-c2c(C(F)F)ccc(Cl)c2F)nc1C(=O)Nc1cnn(Cc2cnc(N3CCC3)nc2)c1` [Example 138, N^2-(1-((2-(Azetidin-1-yl)pyrimidin-5-yl)methyl)-1H-pyrazol-4-yl)-6-(3-chloro-6-(difluoromethyl)-2-fluorophenyl)pyrazine-2,3-dicarboxamide], the IC50 against Human plasma kallikrein was 14.6 nM; at human factor XIa it was 2320 nM.

Consider `CC(C)(O)CNC[C@@H]1[C@@H]2C[C@@H]2CN1c1ncc(Cn2cc(NC(=O)c3cncc(-c4c(C(F)F)ccc(Cl)c4F)n3)cn2)cn1` [Example 139, 6-(3-Chloro-6-(difluoromethyl)-2-fluorophenyl)-N-(1-((2-((1R,2S,5S)-2-(((2-hydroxy-2-methylpropyl)amino)methyl)-3-azabicyclo[3.1.0]hexan-3-yl)pyrimidin-5-yl)methyl)-1H-pyrazol-4-yl)pyrazine-2-carboxamide], for which the IC50 against Human plasma kallikrein was found to be 0.3 nM; at human factor XIa it was 502 nM.

In the case of `O=C(Nc1cnn(Cc2cnc(N3CCC[C@H]3CN3CC[C@@H](O)C3)nc2)c1)c1cncc(-c2c(C(F)F)ccc(Cl)c2F)n1` [Example 142, 6-(3-Chloro-6-(difluoromethyl)-2-fluorophenyl)-N-(1-((2-((S)-2-(((R)-3-hydroxypyrrolidin-1-yl)methyl)pyrrolidin-1-yl)pyrimidin-5-yl)methyl)-1H-pyrazol-4-yl)pyrazine-2-carboxamide], the IC50 on Human plasma kallikrein is 0.4 nM; at human factor XIa, 2170 nM.

Regarding `C[C@H](CO)NC[C@@H]1[C@@H]2C[C@@H]2CN1c1ncc(Cn2cc(NC(=O)c3cncc(-c4c(C(F)F)ccc(Cl)c4F)n3)cn2)cn1` [Example 143, 6-(3-Chloro-6-(difluoromethyl)-2-fluorophenyl)-N-(1-((2-((1R,2S,5S)-2-((((R)-1-hydroxypropan-2-yl)amino)methyl)-3-azabicyclo[3.1.0]hexan-3-yl)pyrimidin-5-yl)methyl)-1H-pyrazol-4-yl)pyrazine-2-carboxamide], the IC50 against Human plasma kallikrein was 0.4 nM; on human factor XIa, 528 nM.

Regarding `CC1(O)CCN(C[C@@H]2CCCN2c2ncc(Cn3cc(NC(=O)c4cncc(-c5c(C(F)F)ccc(Cl)c5F)n4)cn3)cn2)C1` (stereo partly drawn) [Example 144, 6-(3-Chloro-6-(difluoromethyl)-2-fluorophenyl)-N-(1-((2-((2S)-2-((3-hydroxy-3-methylpyrrolidin-1-yl)methyl)pyrrolidin-1-yl)pyrimidin-5-yl)methyl)-1H-pyrazol-4-yl)pyrazine-2-carboxamide], the values for the IC50 on Human plasma kallikrein and at human factor XIa were 0.4 nM and 2340 nM, respectively.

On to `CC1(O)CN(C[C@@H]2[C@@H]3C[C@@H]3CN2c2ncc(Cn3cc(NC(=O)c4cncc(-c5c(C(F)F)ccc(Cl)c5F)n4)cn3)cn2)C1` [Example 145, 6-(3-Chloro-6-(difluoromethyl)-2-fluorophenyl)-N-(1-((2-((1R,2S,5S)-2-((3-hydroxy-3-methylazetidin-1-yl)methyl)-3-azabicyclo[3.1.0]hexan-3-yl)pyrimidin-5-yl)methyl)-1H-pyrazol-4-yl)pyrazine-2-carboxamide], for which the figures for the IC50 against Human plasma kallikrein and on human factor XIa were 0.5 nM and 366 nM, respectively.

As for `C[C@H]1[C@@H](O)CCN1C[C@@H]1CCCN1c1ncc(Cn2cc(NC(=O)c3cncc(-c4c(C(F)F)ccc(Cl)c4F)n3)cn2)cn1` [Example 146, 6-(3-Chloro-6-(difluoromethyl)-2-fluorophenyl)-N-(1-((2-((S)-2-(((2S,3S)-3-hydroxy-2-methylpyrrolidin-1-yl)methyl)pyrrolidin-1-yl)pyrimidin-5-yl)methyl)-1H-pyrazol-4-yl)pyrazine-2-carboxamide], the IC50 was 0.6 nM against Human plasma kallikrein and 7220 nM on human factor XIa.

`C[C@H](F)CN(C)CC1CCCN1c1ncc(Cn2cc(NC(=O)c3cncc(-c4c(C(F)F)ccc(Cl)c4F)n3)cn2)cn1` (stereo partly drawn) [Example 147, 6-(3-Chloro-6-(difluoromethyl)-2-fluorophenyl)-N-(1-((2-(2-((((S)-2-fluoropropyl)(methyl)amino)methyl)pyrrolidin-1-yl)pyrimidin-5-yl)methyl)-1H-pyrazol-4-yl)pyrazine-2-carboxamide]: the figures for the half-inhibitory concentration (IC50) against Human plasma kallikrein and on human factor XIa were 0.6 nM and 5500 nM, respectively.

For `O=C(Nc1cnn(Cc2cnc(N3CCCC3CN3CC[C@H](F)C3)nc2)c1)c1cncc(-c2c(C(F)F)ccc(Cl)c2F)n1` (stereo partly drawn) [Example 148, 6-(3-Chloro-6-(difluoromethyl)-2-fluorophenyl)-N-(1-((2-(2-(((S)-3-fluoropyrrolidin-1-yl)methyl)pyrrolidin-1-yl)pyrimidin-5-yl)methyl)-1H-pyrazol-4-yl)pyrazine-2-carboxamide], the IC50 is 0.6 nM against Human plasma kallikrein and 2930 nM at human factor XIa.

Take `O=C(Nc1cnn(Cc2cnc(N3C[C@H]4C[C@H]4[C@H]3CNCC(O)C(F)F)nc2)c1)c1cncc(-c2c(C(F)F)ccc(Cl)c2F)n1` (stereo partly drawn) [Example 150, 6-(3-Chloro-6-(difluoromethyl)-2-fluorophenyl)-N-(1-((2-((1R,2S,5S)-2-(((3,3-difluoro-2-hydroxypropyl)amino)methyl)-3-azabicyclo[3.1.0]hexan-3-yl)pyrimidin-5-yl)methyl)-1H-pyrazol-4-yl)pyrazine-2-carboxamide]: the IC50 at Human plasma kallikrein was determined as 0.6 nM; at human factor XIa, 650 nM.

`C[C@@H](F)CN(C)CC1CCCN1c1ncc(Cn2cc(NC(=O)c3cncc(-c4c(C(F)F)ccc(Cl)c4F)n3)cn2)cn1` (stereo partly drawn) [Example 151, 6-(3-Chloro-6-(difluoromethyl)-2-fluorophenyl)-N-(1-((2-(2-((((R)-2-fluoropropyl)(methyl)amino)methyl)pyrrolidin-1-yl)pyrimidin-5-yl)methyl)-1H-pyrazol-4-yl)pyrazine-2-carboxamide]: the IC50 amounted to 1 nM at Human plasma kallikrein and 7720 nM on human factor XIa.

For the compound `CC1(O)CN(C[C@@H]2CCCN2c2ncc(Cn3cc(NC(=O)c4cncc(-c5c(C(F)F)ccc(Cl)c5F)n4)cn3)cn2)C1` [Example 152, (S)-6-(3-Chloro-6-(difluoromethyl)-2-fluorophenyl)-N-(1-((2-(2-((3-hydroxy-3-methylazetidin-1-yl)methyl)pyrrolidin-1-yl)pyrimidin-5-yl)methyl)-1H-pyrazol-4-yl)pyrazine-2-carboxamide], the IC50 came to 1 nM on Human plasma kallikrein and 6020 nM on human factor XIa.

Take `C[C@@H](O)CNCC1CCCN1c1ncc(Cn2cc(NC(=O)c3cncc(-c4c(C(F)F)ccc(Cl)c4F)n3)cn2)cn1` (stereo partly drawn) [Example 154, 6-(3-Chloro-6-(difluoromethyl)-2-fluorophenyl)-N-(1-((2-(2-((((R)-2-hydroxypropyl)amino)methyl)pyrrolidin-1-yl)pyrimidin-5-yl)methyl)-1H-pyrazol-4-yl)pyrazine-2-carboxamide]: the IC50 against Human plasma kallikrein was determined as 1.2 nM; at human factor XIa, 4130 nM.

Take `O=C(Nc1cnn(Cc2cnc(N3C[C@H]4C[C@H]4[C@H]3CN3CC(O)(C(F)(F)F)C3)nc2)c1)c1cncc(-c2c(C(F)F)ccc(Cl)c2F)n1` [Example 155, 6-(3-Chloro-6-(difluoromethyl)-2-fluorophenyl)-N-(1-((2-((1R,2S,5S)-2-((3-hydroxy-3-(trifluoromethyl)azetidin-1-yl)methyl)-3-azabicyclo[3.1.0]hexan-3-yl)pyrimidin-5-yl)methyl)-1H-pyrazol-4-yl)pyrazine-2-carboxamide]: the values for the IC50 at Human plasma kallikrein and on human factor XIa were 1.8 nM and 3680 nM, respectively.

As to `CC(c1cnc(N2CC[C@H]2CN2CC[C@H](O)[C@@H]2C)nc1)n1cc(NC(=O)c2cncc(-c3c(C(F)F)ccc(Cl)c3F)n2)cn1` (stereo partly drawn) [Example 161, 6-(3-Chloro-6-(difluoromethyl)-2-fluorophenyl)-N-(1-(1-(2-((S)-2-(((2S,3S)-3-hydroxy-2-methylpyrrolidin-1-yl)methyl)azetidin-1-yl)pyrimidin-5-yl)ethyl)-1H-pyrazol-4-yl)pyrazine-2-carboxamide], the IC50 came to 2 nM against Human plasma kallikrein and 9630 nM at human factor XIa.

On to `CC(c1cnc(N2CC[C@H]2CN2CC[C@H](O)C2)nc1)n1cc(NC(=O)c2cncc(-c3c(C(F)F)ccc(Cl)c3F)n2)cn1` (stereo partly drawn) [Example 162, 6-(3-Chloro-6-(difluoromethyl)-2-fluorophenyl)-N-(1-(1-(2-((S)-2-(((S)-3-hydroxypyrrolidin-1-yl)methyl)azetidin-1-yl)pyrimidin-5-yl)ethyl)-1H-pyrazol-4-yl)pyrazine-2-carboxamide], for which the IC50 at Human plasma kallikrein turned out to be 1 nM; at human factor XIa, 5190 nM.

In the case of `CC(c1cnc(N2CC[C@H]2CN2CC[C@@H](O)C2)nc1)n1cc(NC(=O)c2cncc(-c3c(C(F)F)ccc(Cl)c3F)n2)cn1` (stereo partly drawn) [Example 163, 6-(3-Chloro-6-(difluoromethyl)-2-fluorophenyl)-N-(1-(1-(2-((S)-2-(((R)-3-hydroxypyrrolidin-1-yl)methyl)azetidin-1-yl)pyrimidin-5-yl)ethyl)-1H-pyrazol-4-yl)pyrazine-2-carboxamide], the IC50 was 1.2 nM on Human plasma kallikrein and 4850 nM at human factor XIa.
